1 molecule from PubChem BioAssay (NCI) can be followed below.

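Briefly, cells in 96-well plates were exposed to five compound concentrations for 48 h, and endpoints were estimated by linear interpolation. GI50 = concentration required for 50% inhibition of growth. TGI marks complete inhibition of growth.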

Some test systems named below: CCRF-CEM leukemia; EKVX NSCLC; HS 578T breast; KM12 colon; M14 melanoma; OVCAR-5 ovarian; RPMI-8226 leukemia; SK-MEL-5 melanoma; SK-OV-3 ovarian; UACC-257 melanoma.
Common to all, as to assay: growth of human tumour cells (NCI), 48 h

Regarding `Nc1nc(=O)n([C@@H]2CS[C@H](CO)O2)cc1F`, the GI50 with CCRF-CEM leukemia, in the assay with EKVX NSCLC, in the assay with HS 578T breast, with KM12 colon, in the assay on M14 melanoma and with OVCAR-5 ovarian was more than 100 µM each time. Moreover, the GI50 with RPMI-8226 leukemia, in the assay on SK-MEL-5 melanoma, in the assay with SK-OV-3 ovarian and in the assay with UACC-257 melanoma was more than 100 µM in each case. The TGI in the assay on CCRF-CEM leukemia, with EKVX NSCLC, with HS 578T breast, in the assay on KM12 colon, in the assay on M14 melanoma and in the assay with OVCAR-5 ovarian was more than 100 µM throughout. Moreover, the TGI with RPMI-8226 leukemia, with SK-MEL-5 melanoma, in the assay with SK-OV-3 ovarian and in the assay on UACC-257 melanoma was more than 100 µM in each case.
